Test [1] deals with dopamine transporter (DAT) (Rattus norvegicus (Rat), UniProt P23977). Briefly: Dopamine Transporter Binding Assay ([3H]WIN 35428, rat striatal membranes).
Test [2] addresses norepinephrine transporter (NET) (Rattus norvegicus, UniProt Q63380). The note with it: rat brain membranes; for Ki: read-out: Ki (nM) ± S.E.M. NET. The protocol: Binding affinities of all compounds were evaluated at the DAT, SERT, and NET in rat brain membranes using previously described methods:
Norepinephrine Transporter Binding Assay. Brains from male Sprague-Dawley rats weighing 200-225 g (Taconic Labs, Germantown, N.Y.) were removed, frontal cortex dissected and rapidly frozen. Membranes were prepared by homogenizing tissues in 20 volumes (w/v) of 50 mM Tris containing 120 mM NaCl and 5 mM KCl, (pH 7.4 at 25° C.), using a Brinkman Polytron and centrifuged at 50,000×g for 10 min at 4° C. The resulting pellet was resuspended in buffer, recentrifuged and resuspended in buffer to a concentration of 80 mg/mL. Ligand binding experiments were conducted in assay tubes containing 0.5 mL buffer for 60 min at 0-4° C. […] Nonspecific binding was determined using 1 mM desipramine. Incubations were terminated by rapid filtration through Whatman GF/B filters, presoaked in 0.05% polyethylenimine, using a Brandel R48 filtering manifold (Brandel Instruments Gaithersburg, Md.). The filters were washed twice with 3 mL cold buffer and transferred to scintillation vials. Beckman Ready Value (3.0 mL) was added and the vials were counted using a Beckman 6000 liquid scintillation counter (Beckman Coulter Instruments, Fullerton, Calif.). […] All compounds were tested as racemic mixtures.

Test [3] has as its target serotonin transporter (SERT) (Rattus norvegicus (Rat), UniProt P31652). The note with it: for Ki: read-out: Ki (nM) ± S.E.M. SERT, rat brain membranes.
Description: Brains from male Sprague-Dawley rats weighing 200-225 g (Taconic Labs, Germantown, N.Y.) were removed, midbrain dissected and rapidly frozen. […] Nonspecific binding was determined using 10 mM fluoxetine. […] The filters were washed twice with 3 mL cold buffer and transferred to scintillation vials. Beckman Ready Value (3.0 mL) was added and the vials were counted the next day using a Beckman 6000 liquid scintillation counter (Beckman Coulter Instruments, Fullerton, Calif.). […] Data were analyzed with GraphPad Prism software (San Diego, Calif.).
In another test the target is Sigma 1 (Homo sapiens (Human), UniProt Q99720). The experiment in a line: Sigma 1 binding affinity (Table 5).
Sigma 1, sequence (Q99720 whole entry): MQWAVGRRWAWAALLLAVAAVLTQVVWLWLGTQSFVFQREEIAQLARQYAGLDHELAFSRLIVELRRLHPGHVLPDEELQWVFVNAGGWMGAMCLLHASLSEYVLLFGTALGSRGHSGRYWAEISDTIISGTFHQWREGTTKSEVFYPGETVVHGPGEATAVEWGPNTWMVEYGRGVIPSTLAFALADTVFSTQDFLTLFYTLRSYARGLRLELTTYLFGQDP
The next test addresses Sigma 2 (Homo sapiens (Human), UniProt Q5BJF2). Briefly: Sigma 2 binding affinity (Table 5).
[4] abbreviates: rat brain membranes, Table 2 thioethanamines and sulfinylethanamines, read-out: Ki (nM) ± S.E.M. DAT.
[5] abbreviates: Table 2 thioethanamines and sulfinylethanamines.
[6] abbreviates: Table 1 thioacetamides and sulfinylacetamides.
The mark [7] stands for this setting: rat brain membranes, Table 1 thioacetamides and sulfinylacetamides, read-out: Ki (nM) ± S.E.M. DAT.

SMILES strings stand for the structures. Read-outs that look alike come from different tables or passages of the source. A value given as a limit tells only on which side of the number the result lay.

Experimental findings from US9862679B2, “Potent and selective inhibitors of monoamine transporters; method of making; and use thereof” (priority 2013, dated 2018) are described below.

For orientation: Ki means a dissociation constant, usually derived from enzyme kinetics or from competition with a known ligand.

dopamine transporter (DAT), sequence (P23977 whole entry): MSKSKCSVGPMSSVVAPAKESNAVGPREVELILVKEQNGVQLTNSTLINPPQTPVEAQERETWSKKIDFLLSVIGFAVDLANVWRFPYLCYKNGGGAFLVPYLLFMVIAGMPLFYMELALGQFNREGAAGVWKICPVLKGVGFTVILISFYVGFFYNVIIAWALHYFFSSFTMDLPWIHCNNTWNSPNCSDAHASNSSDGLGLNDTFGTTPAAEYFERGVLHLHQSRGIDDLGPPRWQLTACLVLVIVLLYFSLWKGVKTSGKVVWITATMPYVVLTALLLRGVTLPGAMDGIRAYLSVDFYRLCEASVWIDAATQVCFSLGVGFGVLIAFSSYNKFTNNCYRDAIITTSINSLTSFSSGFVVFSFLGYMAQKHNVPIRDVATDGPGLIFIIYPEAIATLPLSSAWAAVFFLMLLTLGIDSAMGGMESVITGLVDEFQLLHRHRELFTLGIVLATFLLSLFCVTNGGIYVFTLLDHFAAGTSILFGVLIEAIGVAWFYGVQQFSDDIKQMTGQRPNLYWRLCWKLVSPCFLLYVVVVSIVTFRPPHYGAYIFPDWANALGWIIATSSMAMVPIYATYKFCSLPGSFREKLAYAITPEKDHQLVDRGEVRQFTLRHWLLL
serotonin transporter (SERT), sequence (P31652 whole entry): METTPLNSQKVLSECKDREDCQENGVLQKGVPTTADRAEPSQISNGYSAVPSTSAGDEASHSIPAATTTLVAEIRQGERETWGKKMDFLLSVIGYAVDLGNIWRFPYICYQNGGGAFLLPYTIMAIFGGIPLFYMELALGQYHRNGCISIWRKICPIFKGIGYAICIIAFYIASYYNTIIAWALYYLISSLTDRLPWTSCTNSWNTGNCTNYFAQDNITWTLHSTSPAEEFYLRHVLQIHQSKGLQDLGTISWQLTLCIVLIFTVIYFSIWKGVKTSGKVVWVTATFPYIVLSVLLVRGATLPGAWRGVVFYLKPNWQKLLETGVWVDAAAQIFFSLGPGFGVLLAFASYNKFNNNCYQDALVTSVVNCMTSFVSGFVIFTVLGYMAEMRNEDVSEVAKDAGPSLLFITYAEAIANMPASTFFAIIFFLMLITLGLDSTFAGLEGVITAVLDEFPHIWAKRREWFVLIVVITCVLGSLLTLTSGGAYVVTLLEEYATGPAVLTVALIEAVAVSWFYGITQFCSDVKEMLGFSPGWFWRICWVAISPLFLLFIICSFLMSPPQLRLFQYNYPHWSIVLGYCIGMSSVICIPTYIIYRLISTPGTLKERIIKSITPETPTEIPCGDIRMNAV
norepinephrine transporter (NET), sequence (Q63380 1-617): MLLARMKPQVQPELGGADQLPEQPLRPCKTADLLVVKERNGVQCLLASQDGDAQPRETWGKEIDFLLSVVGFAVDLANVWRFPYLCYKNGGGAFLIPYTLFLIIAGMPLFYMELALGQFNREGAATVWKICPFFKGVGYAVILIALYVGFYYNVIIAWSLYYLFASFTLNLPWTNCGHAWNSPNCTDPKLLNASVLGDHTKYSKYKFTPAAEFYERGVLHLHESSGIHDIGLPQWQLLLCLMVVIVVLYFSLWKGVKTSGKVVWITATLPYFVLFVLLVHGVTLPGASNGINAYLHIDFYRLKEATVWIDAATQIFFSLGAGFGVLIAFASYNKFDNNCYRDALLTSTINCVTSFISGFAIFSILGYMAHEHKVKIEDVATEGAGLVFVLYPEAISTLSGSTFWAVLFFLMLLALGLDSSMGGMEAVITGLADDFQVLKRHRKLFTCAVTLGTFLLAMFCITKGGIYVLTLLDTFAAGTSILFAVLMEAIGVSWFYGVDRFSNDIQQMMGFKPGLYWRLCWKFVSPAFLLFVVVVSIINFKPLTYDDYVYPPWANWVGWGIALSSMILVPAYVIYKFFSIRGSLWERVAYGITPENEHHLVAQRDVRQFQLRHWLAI
Sigma 2, sequence (Q5BJF2 whole entry): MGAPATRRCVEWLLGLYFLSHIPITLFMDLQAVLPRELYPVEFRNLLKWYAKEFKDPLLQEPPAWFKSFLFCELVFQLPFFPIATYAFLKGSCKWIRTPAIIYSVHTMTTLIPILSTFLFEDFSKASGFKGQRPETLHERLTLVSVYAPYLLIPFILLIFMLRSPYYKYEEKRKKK

In the case of `CCCCNCC[S+]([O-])C(c1ccccc1)c1ccccc1` (stereo not drawn) [Compound 5b, N-(2-(benzhydrylsulfinyl)ethyl)butan-1-amine], the inhibition constant (Ki) in test [1] (setting [4]) was 1580 nM; in test [2] (setting [5]), > 140000 nM; in test [3] (setting [5]), 64600 nM.

With `CCCNC(=O)CSC(c1ccc(Br)cc1)c1ccc(Br)cc1` [Compound 2n, 2-((Bis(4-bromophenyl)methyl)thio)-N-propylacetamide], the inhibition constant Ki in test [2] (setting [6]) amounted to 10600 nM.

Turning to `NC(=O)CSC(c1ccccc1)c1ccccc1` [Compound 2a, 2-(Benzhydrylthio)acetamide], in test [2] (setting [6]), the inhibition constant (Ki) was > 100000 nM.

With `c1ccc(C(SCCNCC2CC2)c2ccccc2)cc1` [Compound 4d, 2-(benzhydrylthio)-N-(cyclopropylmethyl)ethan-1-amine], the inhibitory constant (Ki) in test [1] (read-out: Ki (nM) ± S.E.M. DAT) worked out at 437 ± 30.1 nM; in test [3] (setting [5]), 10000 nM.

For `O=C(CSC(c1ccc(Br)cc1)c1ccc(Br)cc1)NCCCCc1ccccc1` [Compound 2z, 2-((Bis(4-bromophenyl)methyl)thio)-N-(4-phenylbutyl)acetamide], the “Ki (nM) ± S.E.M. NET” value in test [2] (setting [6]) is recorded as “no displacement”. In addition, the Ki in test [2] (setting [6]) and in test [3] (setting [6]) was > 100000 nM throughout.

Consider `NCC[S+]([O-])C(c1ccccc1)c1ccccc1` (stereo not drawn) [Compound 5a, 2-(Benzhydrylsulfinyl)ethan-1-amine], for which the Ki in test [3] (setting [5]) turned out to be 3420 nM.

As for `CCCNC(=O)CSC(c1ccc(F)cc1)c1ccc(F)cc1` [Compound 2l, 2-((Bis(4-fluorophenyl)methyl)thio)-N-propylacetamide], the inhibition constant (Ki) was 12000 nM in test [1] (setting [7]), 61700 nM in test [2] (setting [6]) and 45100 nM in test [3] (setting [6]).

On to `[O-][S+](CCNCCCc1ccccc1)C(c1ccc(F)cc1)c1ccc(F)cc1` (stereo not drawn) [Compound 5c, N-(2-((bis(4-fluorophenyl)methyl)sulfinyl)ethyl)-3-phenylpropan-1-amine], for which the figures for the Ki in test [1] (setting [4]), in test [2] (setting [5]) and in test [3] (setting [5]) were 200 ± 38.7 nM, 3280 nM and 1310 nM, respectively.

In the case of `CNC(=O)C[S+]([O-])C(c1ccccc1)c1ccccc1` (stereo not drawn) [Compound 3f, 2-(Benzhydrylsulfinyl)-N-methylacetamide], the Ki in test [1] (setting [7]) is 13400 nM; in test [2] (setting [6]) it was > 100000 nM; in test [3] (setting [6]), > 100000 nM.

Turning to `C=CCNC(=O)CSC(c1ccccc1)c1ccccc1` [Compound 2j, N-Allyl-2-(benzhydrylthio)acetamide], the Ki was 9190 nM in test [1] (setting [7]), > 230000 nM in test [2] (setting [6]) and > 300000 nM in test [3] (setting [6]).

For the molecule `O=C(C[S+]([O-])C(c1ccc(Br)cc1)c1ccc(Br)cc1)NCCCc1ccccc1` (stereo not drawn) [Compound 3g, 2-(Bis(4-bromophenyl)methylsulfinyl)-N-(3-phenylpropyl)acetamide], the Ki in test [1] (setting [7]) was 1290 nM; in test [2] (setting [6]), > 100000 nM; in test [3] (setting [6]), 906 ± 113 nM.

As to `CNC(=O)CSC(c1ccc(Cl)cc1)c1ccc(Cl)cc1` [Compound 2h, 2-((Bis(4-chlorophenyl)methyl)thio)-N-methylacetamide], the Ki in test [3] (setting [6]) is > 30000 nM.

Take `NC(=O)CSC(c1ccc(Cl)cc1)c1ccc(Cl)cc1` [Compound 100, reference compound]: the Ki is 2230 nM in test [1] (read-out: Ki (nM) ± S.E.M. DAT) and 12700 nM in test [3] (setting [6]).

With `CNC(=O)CSC(c1ccccc1)c1ccccc1` [Compound 2g, 2-(Benzhydrylthio)-N-methylacetamide], the Ki was 19400 nM in test [1] (setting [7]), 27300 nM in test [2] (setting [6]) and > 300000 nM in test [3] (setting [6]).

For the molecule `O=C(CSC(c1ccc(Br)cc1)c1ccc(Br)cc1)NCCCc1ccccc1` [Compound 2x, 2-((Bis(4-bromophenyl)methyl)thio)-N-(3-phenylpropyl)acetamide], the Ki in test [1] (setting [7]) was 244 ± 36.4 nM; in test [2] (setting [6]) it was 36300 nM; in test [3] (setting [6]), 60800 nM.

In the case of `NC(=O)C[S+]([O-])C(c1ccc(C(F)(F)F)cc1)c1ccc(C(F)(F)F)cc1` (stereo not drawn) [Compound 3b, 2-((Bis(4-(trifluoromethyl)phenyl)methyl)sulfinyl)acetamide], the Ki in test [1] (setting [7]) was 35400 nM.

Consider `O=C(CSC(c1ccccc1)c1ccccc1)N1CCN(CCCc2ccccc2)CC1` [Compound 11a, 2-(Benzhydrylthio)-1-(4-(3-phenylpropyl)piperazin-1-yl)ethan-1-one], for which the Ki is 47.2 ± 5.56 nM in test [1] (rat brain membranes, Table 5 piperazinyl derivatives, read-out: DAT Ki ± SEM); 1.12 ± 0.0203 µM on Sigma 1; 0.773 µM at Sigma 2.

For the molecule `[O-][S+](CCNCCCc1ccccc1)C(c1ccc(Br)cc1)c1ccc(Br)cc1` (stereo not drawn) [Compound 5e, N-(2-((bis(4-bromophenyl)methyl)sulfinyl)ethyl)-3-phenylpropan-1-amine], the Ki in test [1] (setting [4]) turned out to be 1290 nM; in test [2] (setting [5]), 7580 nM; in test [3] (setting [5]), 564 ± 65.3 nM.

`O=C(CSC(c1ccccc1)c1ccccc1)NCCCc1ccccc1` [Compound 2u, 2-(Benzhydrylthio)-N-(3-phenylpropyl)acetamide]: the Ki in test [1] (read-out: Ki (nM) ± S.E.M. DAT) is 2020 nM.

As to `CCCCNC(=O)CSC(c1ccc(F)cc1)c1ccc(F)cc1` [Compound 2s, 2-((Bis(4-fluorophenyl)methyl)thio)-N-butylacetamide], the Ki in test [1] (setting [7]) is 6470 nM.

Take `CCCCNC(=O)CSC(c1ccccc1)c1ccccc1` [Compound 2r, 2-(Benzhydrylthio)-N-butylacetamide]: the Ki in test [1] (setting [7]) was 24000 nM; in test [2] (setting [6]), > 100000 nM; in test [3] (setting [6]), > 100000 nM.

Regarding `CCCNC(=O)CSC(c1ccccc1)c1ccccc1` [Compound 2k, 2-(Benzhydrylthio)-N-propylacetamide], the Ki was 20700 nM in test [1] (setting [7]), 55900 nM in test [2] (setting [6]) and > 550000 nM in test [3] (setting [6]).

As for `NCCSC(c1ccccc1)c1ccccc1` [Compound 4a, 2-(benzhydrylthio)ethan-1-amine], the “improved affinity at the DAT compared to (±)-modafinil” value in test [1] is “about 20 fold”. Besides, the inhibition constant Ki in test [1] (read-out: Ki (nM) ± S.E.M. DAT) is 143 nM; in test [2] (setting [5]), 982 ± 43.3 nM; in test [3] (setting [5]) it was 226 ± 30.6 nM.

On to `CNC(=O)CSC(c1ccc(Br)cc1)c1ccc(Br)cc1` [Compound 2i, 2-((Bis(4-bromophenyl)methyl)thio)-N-methylacetamide], for which the “improvement in DAT affinity, halogen-substituted v. unsubstituted analogue” value in test [1] turned out to be 6 fold. The Ki turned out to be 3030 nM in test [1] (setting [7]), 11200 nM in test [2] (setting [6]) and 5750 nM in test [3] (setting [6]). In addition, the “increase in SERT affinity, halogen-substituted v. unsubstituted analogue” value in test [3] (2i v. 2g (Table 1), 4c v. 4a (Table 2)) is on record as > 50 fold.

With `CCCCNCCSC(c1ccccc1)c1ccccc1` [Compound 4e, N-(2-(benzhydrylthio)ethyl)butan-1-amine], the Ki in test [1] (setting [4]) is 315 ± 39.9 nM; in test [2] (setting [5]), 11500 nM; in test [3] (setting [5]), 5820 nM.

As for `CCCNC(=O)CSC(c1ccc(Cl)cc1)c1ccc(Cl)cc1` [Compound 2m, 2-((Bis(4-chlorophenyl)methyl)thio)-N-propylacetamide], the Ki in test [3] (setting [6]) came to 10300 nM.

Turning to `O=C(CSC(c1ccc(F)cc1)c1ccc(F)cc1)NCCCc1ccccc1` [Compound 2v, 2-((Bis(4-fluorophenyl)methyl)thio)-N-(3-phenylpropyl)acetamide], the results for the Ki in test [2] (setting [6]) and in test [3] (setting [6]) were > 100000 nM and 3640 nM, respectively.

As for `CCCCNC(=O)CSC(c1ccc(Br)cc1)c1ccc(Br)cc1` [Compound 2t, 2-((Bis(4-bromophenyl)methyl)thio)-N-butylacetamide], the Ki in test [1] (setting [7]) is 729 ± 69.3 nM; in test [3] (setting [6]), 7090 nM.

Take `NC(=O)CSC(c1cccc(Cl)c1)c1cccc(Cl)c1` [Compound 2e, 2-((Bis(3-chlorophenyl)methyl)thio)acetamide]: the results for the Ki in test [1] (setting [7]), in test [2] (setting [6]) and in test [3] (setting [6]) were 277 ± 18.3 nM, 34000 nM and 739000 nM, respectively.

With `O=C(CSC(c1ccccc1)c1ccccc1)NCCCCc1ccccc1` [Compound 2y, 2-(Benzhydrylthio)-N-(4-phenylbutyl)acetamide], the Ki in test [1] (read-out: Ki (nM) ± S.E.M. DAT) amounted to 1160 nM.

On to `[O-][S+](CCNCCCc1ccccc1)C(c1ccccc1)c1ccccc1` (stereo not drawn) [Compound 200, reference compound], for which the inhibition constant Ki in test [1] (read-out: Ki (nM) ± S.E.M. DAT) was 194 ± 16.8 nM; in test [3] (setting [5]), 1000 nM.

Turning to `c1ccc(CCCNCCSC(c2ccccc2)c2ccccc2)cc1` [Compound 4f, N-(2-(benzhydrylthio)ethyl)-3-phenylpropan-1-amine], the Ki in test [1] (setting [4]) worked out at 297 ± 28.2 nM; in test [2] (setting [5]), 3910 nM; in test [3] (setting [5]), 853 ± 127 nM.

As to `Brc1ccc(C(SCCNCCCc2ccccc2)c2ccc(Br)cc2)cc1` [Compound 4i, N-(2-((bis(4-bromophenyl)methyl)thio)ethyl)-3-phenylpropan-1-amine], the results for the Ki in test [1] (read-out: Ki (nM) ± S.E.M. DAT) and in test [3] (setting [5]) were 618 ± 53 nM and 163 ± 7.49 nM, respectively.

Take `[O-][S+](CCNCCCc1ccccc1)C(c1ccc(Cl)cc1)c1ccc(Cl)cc1` (stereo not drawn) [Compound 5d, N-(2-((bis(4-chlorophenyl)methyl)sulfinyl)ethyl)-3-phenylpropan-1-amine]: the Ki came out at 660 ± 76.9 nM in test [1] (setting [4]), 5800 nM in test [2] (setting [5]) and 542 ± 42.6 nM in test [3] (setting [5]).
